Data as given in patent US20210255193A1, “LYSINE REACTIVE PROBES AND USES THEREOF” (The Scripps Research Institute, priority 2017, published 2021).

Tests used:
Test in all cases: competitive isoTOP-ABPP
Format in all cases: binding
[1] = biological target: T1, GOLGB1 Golgin subfamily B member 1 (Homo sapiens, UniProt Q14789)
T1 construct: isoTOP-ABPP experiments performed in cell lysates (in vitro); endogenous in cells; host or cells: soluble proteome of human cancer cell lines (MDA-MB-231, Ramos, Jurkat)
Procedure, shortened: (§1)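 Lysate + fragment (50 μM activated ester / 100 μM guanidinylating agent) or DMSO → 0.1 mM STP-alkyne, 1 h, RT → CuAAC to TEV tags (compound light, DMSO heavy) → LC-MS. R = heavy/light MS1 area; liganded lysine if R≥4.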

[2] = biological target: T2, MTOR Serine/threonine-protein kinase mTOR (Homo sapiens, UniProt P42345)
T2 construct: isoTOP-ABPP experiments performed in cell lysates (in vitro); endogenous in cells; host or cells: soluble proteome of human cancer cell lines (MDA-MB-231; Ramos and Jurkat also prepared)
Procedure, shortened: as §1

[3] = biological target: T3, OLA1 Obg-like ATPase 1 (Homo sapiens, UniProt Q9NTK5)
T3 construct: endogenous in cells; host or cells: MDA-MB-231 (soluble fraction of lysate)
Procedure, shortened: as §1

[4] = biological target: T4, RQCD1 Cell differentiation protein RCD1 homolog (Homo sapiens, UniProt Q92600)
T4 construct: isoTOP-ABPP experiments performed in cell lysates (in vitro); endogenous in cells; host or cells: soluble proteome of human cancer cell lines (MDA-MB-231; Ramos and Jurkat also prepared)
Procedure, shortened: as §1

[5] = biological target: T5, TRAP1 Heat shock protein 75 kDa, mitochondrial (Homo sapiens, UniProt Q12931)
T5 construct: isoTOP-ABPP experiments performed in cell lysates (in vitro); endogenous in cells; host or cells: soluble proteome of human cancer cell lines (MDA-MB-231, Ramos, Jurkat)
T5 sequence (Q12931 60-704): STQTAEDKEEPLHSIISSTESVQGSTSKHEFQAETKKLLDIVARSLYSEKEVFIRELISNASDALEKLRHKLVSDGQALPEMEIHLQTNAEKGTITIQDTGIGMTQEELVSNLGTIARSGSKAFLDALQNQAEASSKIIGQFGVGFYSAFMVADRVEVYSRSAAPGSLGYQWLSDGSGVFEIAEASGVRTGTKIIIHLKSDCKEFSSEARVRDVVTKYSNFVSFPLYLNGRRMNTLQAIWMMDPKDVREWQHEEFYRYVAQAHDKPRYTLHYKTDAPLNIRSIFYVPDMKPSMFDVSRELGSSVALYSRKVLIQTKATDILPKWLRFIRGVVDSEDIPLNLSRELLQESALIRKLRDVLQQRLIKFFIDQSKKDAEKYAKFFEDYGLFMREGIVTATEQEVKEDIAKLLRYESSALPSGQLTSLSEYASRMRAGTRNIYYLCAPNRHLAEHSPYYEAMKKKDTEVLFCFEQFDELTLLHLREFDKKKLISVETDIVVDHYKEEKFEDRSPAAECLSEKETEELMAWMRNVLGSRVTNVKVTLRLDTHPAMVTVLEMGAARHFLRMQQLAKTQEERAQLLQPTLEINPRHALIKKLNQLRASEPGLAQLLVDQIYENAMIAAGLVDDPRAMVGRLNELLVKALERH
Procedure, shortened: as §1

[6] = biological target: T6, UCHL5 Ubiquitin carboxyl-terminal hydrolase isozyme L5 (Homo sapiens, UniProt Q9Y5K5)
T6 construct: endogenous in cells; host or cells: MDA-MB-231 (soluble fraction of lysate)
T6 sequence (Q9Y5K5 1-329): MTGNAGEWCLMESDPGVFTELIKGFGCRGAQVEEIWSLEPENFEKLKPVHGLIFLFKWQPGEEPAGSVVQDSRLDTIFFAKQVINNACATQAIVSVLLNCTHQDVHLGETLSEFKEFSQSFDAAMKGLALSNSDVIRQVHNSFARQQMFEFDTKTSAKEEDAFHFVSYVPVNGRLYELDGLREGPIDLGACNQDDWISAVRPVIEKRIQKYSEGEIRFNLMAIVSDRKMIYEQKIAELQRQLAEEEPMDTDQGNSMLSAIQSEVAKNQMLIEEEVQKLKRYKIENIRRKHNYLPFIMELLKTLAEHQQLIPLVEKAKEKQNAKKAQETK
Procedure, shortened: as §1

T4 sequence (Q92600 whole entry): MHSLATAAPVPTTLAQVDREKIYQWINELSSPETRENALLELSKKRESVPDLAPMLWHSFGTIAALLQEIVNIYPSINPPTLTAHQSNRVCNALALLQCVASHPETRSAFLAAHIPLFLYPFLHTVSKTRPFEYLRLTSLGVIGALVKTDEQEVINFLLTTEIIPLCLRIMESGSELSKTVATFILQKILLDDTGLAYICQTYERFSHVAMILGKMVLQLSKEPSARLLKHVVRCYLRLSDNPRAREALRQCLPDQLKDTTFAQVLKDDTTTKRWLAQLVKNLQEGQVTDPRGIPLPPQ
T1 sequence (Q14789 whole entry): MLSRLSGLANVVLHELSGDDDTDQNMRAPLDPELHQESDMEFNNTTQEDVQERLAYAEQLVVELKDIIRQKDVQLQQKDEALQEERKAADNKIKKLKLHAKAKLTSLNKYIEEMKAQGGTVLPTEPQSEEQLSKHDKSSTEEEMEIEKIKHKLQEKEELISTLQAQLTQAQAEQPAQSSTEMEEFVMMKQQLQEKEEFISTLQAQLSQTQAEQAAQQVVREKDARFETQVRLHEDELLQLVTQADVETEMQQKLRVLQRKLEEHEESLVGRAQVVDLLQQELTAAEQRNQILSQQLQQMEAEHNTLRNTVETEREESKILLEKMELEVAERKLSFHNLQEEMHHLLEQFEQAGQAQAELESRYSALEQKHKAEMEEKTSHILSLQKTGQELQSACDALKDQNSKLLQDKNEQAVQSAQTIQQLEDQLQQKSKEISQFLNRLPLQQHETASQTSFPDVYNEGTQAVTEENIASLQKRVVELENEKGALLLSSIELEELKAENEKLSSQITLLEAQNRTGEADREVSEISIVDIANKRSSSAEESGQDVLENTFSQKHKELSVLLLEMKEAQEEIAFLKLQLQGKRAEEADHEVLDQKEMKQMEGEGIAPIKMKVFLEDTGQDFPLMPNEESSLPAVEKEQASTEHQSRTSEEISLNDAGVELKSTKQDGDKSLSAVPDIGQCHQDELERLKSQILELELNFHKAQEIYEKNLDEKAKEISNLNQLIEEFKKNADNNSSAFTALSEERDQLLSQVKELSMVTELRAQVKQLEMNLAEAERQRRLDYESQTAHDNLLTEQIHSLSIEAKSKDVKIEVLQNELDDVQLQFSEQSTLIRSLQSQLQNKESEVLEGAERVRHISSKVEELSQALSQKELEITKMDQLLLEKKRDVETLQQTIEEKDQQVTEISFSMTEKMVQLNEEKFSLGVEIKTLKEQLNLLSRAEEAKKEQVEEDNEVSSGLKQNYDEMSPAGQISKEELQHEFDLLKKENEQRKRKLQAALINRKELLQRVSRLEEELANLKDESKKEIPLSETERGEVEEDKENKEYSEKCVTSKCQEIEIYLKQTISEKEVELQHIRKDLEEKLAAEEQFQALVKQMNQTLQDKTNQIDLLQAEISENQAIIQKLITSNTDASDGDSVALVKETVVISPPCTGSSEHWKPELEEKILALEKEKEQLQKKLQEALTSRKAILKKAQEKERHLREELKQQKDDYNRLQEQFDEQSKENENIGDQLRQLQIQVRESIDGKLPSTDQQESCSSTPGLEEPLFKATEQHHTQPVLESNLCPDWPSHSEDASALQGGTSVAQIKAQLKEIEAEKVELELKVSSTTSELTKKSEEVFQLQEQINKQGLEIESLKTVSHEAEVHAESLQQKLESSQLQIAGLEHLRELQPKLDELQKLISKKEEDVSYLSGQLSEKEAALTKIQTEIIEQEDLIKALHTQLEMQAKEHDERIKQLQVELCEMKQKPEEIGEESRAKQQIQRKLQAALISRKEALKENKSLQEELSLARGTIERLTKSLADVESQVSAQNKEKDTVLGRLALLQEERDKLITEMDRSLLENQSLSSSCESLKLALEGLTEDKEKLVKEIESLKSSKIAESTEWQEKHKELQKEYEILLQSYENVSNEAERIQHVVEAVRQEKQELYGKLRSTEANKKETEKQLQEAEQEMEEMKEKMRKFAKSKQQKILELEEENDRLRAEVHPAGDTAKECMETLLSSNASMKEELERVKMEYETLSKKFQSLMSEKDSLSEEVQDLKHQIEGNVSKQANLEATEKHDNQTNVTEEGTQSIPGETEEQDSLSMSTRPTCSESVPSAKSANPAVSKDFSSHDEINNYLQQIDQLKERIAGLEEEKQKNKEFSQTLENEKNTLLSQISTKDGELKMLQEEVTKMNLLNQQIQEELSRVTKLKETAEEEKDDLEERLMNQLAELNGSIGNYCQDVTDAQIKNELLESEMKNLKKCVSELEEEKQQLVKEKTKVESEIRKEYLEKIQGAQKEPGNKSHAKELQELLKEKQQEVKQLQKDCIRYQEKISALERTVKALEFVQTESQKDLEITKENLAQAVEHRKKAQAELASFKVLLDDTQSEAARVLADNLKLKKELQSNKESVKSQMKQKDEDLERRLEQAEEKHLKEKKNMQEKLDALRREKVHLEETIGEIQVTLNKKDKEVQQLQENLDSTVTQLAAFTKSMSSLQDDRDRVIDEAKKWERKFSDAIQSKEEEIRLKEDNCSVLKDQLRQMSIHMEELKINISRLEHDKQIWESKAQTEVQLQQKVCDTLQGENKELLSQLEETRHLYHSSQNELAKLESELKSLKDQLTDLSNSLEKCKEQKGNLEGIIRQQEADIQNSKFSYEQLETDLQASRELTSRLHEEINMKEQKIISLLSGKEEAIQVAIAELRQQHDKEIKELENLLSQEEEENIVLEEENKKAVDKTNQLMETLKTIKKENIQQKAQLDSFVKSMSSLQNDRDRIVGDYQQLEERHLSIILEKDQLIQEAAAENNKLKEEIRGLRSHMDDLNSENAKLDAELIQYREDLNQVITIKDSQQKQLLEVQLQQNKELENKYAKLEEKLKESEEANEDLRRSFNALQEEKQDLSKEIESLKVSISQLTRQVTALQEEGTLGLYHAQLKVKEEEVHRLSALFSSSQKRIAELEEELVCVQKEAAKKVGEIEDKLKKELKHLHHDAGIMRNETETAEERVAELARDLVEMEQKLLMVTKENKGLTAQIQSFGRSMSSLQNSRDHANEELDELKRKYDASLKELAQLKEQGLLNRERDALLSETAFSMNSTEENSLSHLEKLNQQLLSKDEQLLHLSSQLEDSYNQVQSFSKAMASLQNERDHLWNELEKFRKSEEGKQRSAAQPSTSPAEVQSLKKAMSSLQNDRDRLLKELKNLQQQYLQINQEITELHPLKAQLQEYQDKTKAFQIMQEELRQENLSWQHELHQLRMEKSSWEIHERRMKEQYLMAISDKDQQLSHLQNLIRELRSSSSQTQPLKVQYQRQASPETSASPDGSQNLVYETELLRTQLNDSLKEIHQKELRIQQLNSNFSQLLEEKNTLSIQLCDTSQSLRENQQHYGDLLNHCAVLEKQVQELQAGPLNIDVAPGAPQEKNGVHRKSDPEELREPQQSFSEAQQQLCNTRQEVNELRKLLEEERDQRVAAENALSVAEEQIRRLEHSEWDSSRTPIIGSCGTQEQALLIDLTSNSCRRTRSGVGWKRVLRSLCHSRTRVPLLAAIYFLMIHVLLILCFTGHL

Structure (SMILES)	isoTOP-ABPP ratio, lysine Q14789_K103 ([1]; 50 uM_231_sol_in vitro)	isoTOP-ABPP ratio, lysine P42345_K2066 ([2]; 50 uM_231_sol_in vitro)	isoTOP-ABPP ratio, lysine Q9NTK5_K248 ([3]; 50 uM_231_sol_in vitro)	isoTOP-ABPP ratio, lysine Q92600_K230 ([4]; 50 uM_231_sol_in vitro)	isoTOP-ABPP ratio, lysine Q12931_K699 ([5]; 50 uM_231_sol_in vitro)	isoTOP-ABPP ratio, lysine Q9Y5K5_K323 ([6]; 50 uM_231_sol_in vitro)	isoTOP-ABPP ratio, lysine Q14789_K103 ([1]; 100 uM_231_sol_in vitro)	isoTOP-ABPP ratio, lysine P42345_K2066 ([2]; 100 uM_231_sol_in vitro)	isoTOP-ABPP ratio, lysine Q9NTK5_K248 ([3]; 100 uM_231_sol_in vitro)	isoTOP-ABPP ratio, lysine Q92600_K230 ([4]; 100 uM_231_sol_in vitro)	isoTOP-ABPP ratio, lysine Q12931_K699 ([5]; 100 uM_231_sol_in vitro)	isoTOP-ABPP ratio, lysine Q9Y5K5_K323 ([6]; 100 uM_231_sol_in vitro)
O=C(ON1C(=O)CCC1=O)c1cc(C(F)(F)F)cc(C(F)(F)F)c1 [fragment 46, 3,5-Bis(trifluoromethyl)benzoic acid NHS ester]	1.2	1.5	1.2	1.1	0.9	1.0						
O=C(Oc1c(F)c(F)c(C(F)(F)F)c(F)c1F)c1cc(C(F)(F)F)cc(C(F)(F)F)c1 [fragment 47, 2,3,5,6-Tetrafluoro-4-(trifluoromethyl)phenyl 3,5-bis(trifluoromethyl)benzoate]	1.0	1.1	1.2	0.8	1.1	1.4						
COC(=O)NC(=NC(=O)OCC1c2ccccc2-c2ccccc21)n1cccn1 [fragment 49, N-Methoxycarbonyl-N′-9-fluorenylmethoxycarbonyl-pyrazole-1-carboxamidine]							1.8	1.0	7.0	1.1	1.2	9.0
CC(C)(C)OC(=O)N=C(NC(=O)OC(C)(C)C)n1cccn1 [fragment 50, reference compound]							1.4	1.4	2.1	1.0	1.1	2.2
NC(=O)c1cc(C(F)(F)F)cc(C(F)(F)F)c1 [fragment 51, reference compound]	0.9	0.8	0.9	0.9	1.2	1.0						
